# According to ChEMBL document CHEMBL3046822, “Synthesis, antiplatelet aggregation activity, and molecular modeling study of novel substituted-piperazine analogues” (2011):
# The source made the active and inactive calls. The rule behind the calls is not given here.
# What was measured:
# Platelet [1] = assay: Antiaggregating activity in Homo sapiens (human) platelet rich plasma assessed as inhibition of arachidonic acid-induced platelet aggregation at 0.5 uM incubated for 4 min prior to arachidonic acid-induction measured for 5.5 min by turbidometric analysis; assay type: functional
# Platelet [2] = assay: Antiaggregating activity in Homo sapiens (human) platelet rich plasma assessed as inhibition of arachidonic acid-induced platelet aggregation at 1 uM incubated for 4 min prior to arachidonic acid-induction measured for 5.5 min by turbidometric analysis; assay type: functional, cell-free
# Platelet [3] = assay: Antiaggregating activity in Homo sapiens (human) platelet rich plasma assessed as inhibition of adrenaline-induced platelet aggregation at 0.4 uM incubated for 4 min prior to adrenaline-induction measured for 5.5 min by turbidometric analysis; assay type: functional, cell-free
# Platelet [4] = assay: Antiaggregating activity in Homo sapiens (human) platelet rich plasma assessed as inhibition of adrenaline-induced platelet aggregation at 0.5 uM incubated for 4 min prior to adrenaline-induction measured for 5.5 min by turbidometric analysis; assay type: functional, cell-free
# Platelet [5] = assay: Antiaggregating activity in Homo sapiens (human) platelet rich plasma assessed as inhibition of adrenaline-induced platelet aggregation at 1 uM incubated for 4 min prior to adrenaline-induction measured for 5.5 min by turbidometric analysis; assay type: functional, cell-free
# [6] = Antiaggregating activity in Homo sapiens (human) platelet rich plasma assessed as ristocetin-induced platelet aggregation at 0.4 uM incubated for 4 min prior to ristocetin-induction measured for 5.5 min by turbidometric analysis (reference value: 65 to 99%); assay type: functional
# [7] = Antiaggregating activity in Homo sapiens (human) platelet rich plasma assessed as ristocetin-induced platelet aggregation at 0.5 uM incubated for 4 min prior to ristocetin-induction measured for 5.5 min by turbidometric analysis (reference value: 65 to 99%); assay type: functional
# [8] = Antiaggregating activity in human platelet rich plasma assessed as disaggregation of ristocetin-induced platelet aggregation at 1 uM incubated for 4 min prior to ristocetin-induction measured for 5.5 min by turbidometric analysis relative to control; assay type: functional
# Platelet [9] = assay: Antiaggregating activity in Homo sapiens (human) platelet rich plasma assessed as inhibition of ADP-induced platelet aggregation at 0.4 uM incubated for 4 min prior to ADP-induction measured for 5.5 min by turbidometric analysis; assay type: functional, cell-free
# Platelet [10] = assay: Antiaggregating activity in Homo sapiens (human) platelet rich plasma assessed as inhibition of ADP-induced platelet aggregation at 0.5 uM incubated for 4 min prior to ADP-induction measured for 5.5 min by turbidometric analysis; assay type: functional, cell-free
# Platelet [11] = assay: Antiaggregating activity in Homo sapiens (human) platelet rich plasma assessed as inhibition of ADP-induced platelet aggregation at 1 uM incubated for 4 min prior to ADP-induction measured for 5.5 min by turbidometric analysis; assay type: functional, cell-free
# Platelet [12] = assay: Antiaggregating activity in Homo sapiens (human) platelet rich plasma assessed as inhibition of collagen-induced platelet aggregation at 0.4 uM incubated for 4 min prior to collagen-induction measured for 5.5 min by turbidometric analysis; assay type: functional, cell-free
# Platelet [13] = assay: Antiaggregating activity in Homo sapiens (human) platelet rich plasma assessed as inhibition of collagen-induced platelet aggregation at 0.5 uM incubated for 4 min prior to collagen-induction measured for 5.5 min by turbidometric analysis; assay type: functional, cell-free
# Platelet [14] = assay: Antiaggregating activity in Homo sapiens (human) platelet rich plasma assessed as inhibition of collagen-induced platelet aggregation at 1 uM incubated for 4 min prior to collagen-induction measured for 5.5 min by turbidometric analysis; assay type: functional, cell-free
# Platelet [15] = assay: Antiaggregating activity in Homo sapiens (human) platelet rich plasma assessed as inhibition of arachidonic acid-induced platelet aggregation at 0.4 uM incubated for 4 min prior to arachidonic acid-induction measured for 5.5 min by turbidometric analysis; assay type: functional, cell-free
structure (smiles),measurement,setting,value
Cl.O=C(c1cccnc1)N1CCN(c2ccccc2Cl)CC1,inhibition,Platelet [1],Active
same,inhibition,Platelet [2],Active
same,inhibition,Platelet [3],Active
same,inhibition,Platelet [4],Active
same,inhibition,Platelet [5],Active
same,Activity,[6],77%
same,Activity,[7],71%
same,Activity,[8],23%
same,inhibition,Platelet [9],Active
same,inhibition,Platelet [10],Active
same,inhibition,Platelet [11],Active
same,inhibition,Platelet [12],Active
same,inhibition,Platelet [13],Active
same,inhibition,Platelet [14],Active
same,inhibition,Platelet [15],Active
